How the values were obtained:
[1] = tested on: Immortalized vaginal epithelial cells (VK2/E6E7); test: Vaginal epithelium toxicity (MTT viability); type: cell-based; conditions: concentrations of melittin as low as 1 μM, 12 hours at 37° C., FIG. 1A
Method: For toxicity studies, 7500 cells were added to each well of a 96-well plate and allowed to attach for 24 hours. Melittin or melittin coated PFC-NP were then added and incubated with the cells for 12 hours at 37° C. with shaking at 500 rpm. Cells were washed once with media and incubated with MTT reagent for 4 hours. The colored product was solubilized in DMSO and absorbance at 570 nm was measured using a plate reader.
In more detail, cells were detached from a T75 flask by rinsing with 2-3 mL of trypsin, followed by adding 5 mL trypsin and incubating at 37° C. for 15 minutes. Five mL DMEM-FBS is then added to stop the trypsin, and the mixture is centrifuged at 900 rpm for 5 minutes, supernatant is removed and the cells are resuspended in 5 mL of Keratinocyte-Serum Free Media (Invitrogen™). The cells are diluted to approximately 75,000 cells/mL, and 100 μL of the cell suspension is added to each well of a 96-well plate and incubated for 24 hours at 37° C. The media are replaced with 100 μL of media containing the melittin or melittin-loaded nanoparticles at various concentrations and incubated for 12 hours at 37° C. with shaking at 500 rpm. […]
To each well containing 100 μL of media, 20 μL of MTT reagent (5 mg/mL MTT in PBS) were added, and incubated for 4 hours at 37° C. […] Absorbance is read at 570 nm using a plate reader.

sperm = test: Sperm motility and viability (computer assisted sperm analysis); type: cell-based, Human; conditions: 30 minutes at 37° C., 10 million sperm per mL; FIGS. 5A-5D
Method: Human semen samples were obtained from the Washington University in vitro fertilization laboratory and stored at 37° C. until use. Semen was diluted in EmbryoMax® Human Tubal Fluid (HTF) (Millipore) and free melittin or melittin-coupled nanoparticles in HTF was added to achieve a final sperm concentration of 10 million sperm per mL. (For nanoparticles, samples were pipetted up and down 3 times every 10 minutes to keep the nanoparticles suspended.) Samples were incubated in 96-well plates for 30 minutes at 37° C. with shaking at 150 rpm to prevent sperm from settling. Afterwards, Viadent® stain (Hoechst 33258, Hamilton Thorne) was added to achieve a final stain concentration of 10 μg/mL and samples were incubated for an additional 5 minutes. Sperm motility and viability were determined using an IVOS® Computer Assisted Sperm Analyzer (Hamilton Thorne).

## CC[C@H](C)[C@H](NC(=O)CN)C(=O)NCC(=O)N[C@@H](C)C(=O)N[C@H](C(=O)N[C@@H](CC(C)C)C(=O)N[C@@H](CCCCN)C(=O)N[C@H](C(=O)N[C@@H](CC(C)C)C(=O)N[C@H](C(=O)N[C@H](C(=O)NCC(=O)N[C@@H](CC(C)C)C(=O)N1CCC[C@H]1C(=O)N[C@@H](C)C(=O)N[C@@H](CC(C)C)C(=O)N[C@H](C(=O)N[C@@H](CO)C(=O)N[C@@H](Cc1c[nH]c2ccccc12)C(=O)N[C@H](C(=O)N[C@@H](CCCCN)C(=O)N[C@@H](CCCNC(=N)N)C(=O)N[C@@H](CCCCN)C(=O)N[C@@H](CCCNC(=N)N)C(=O)N[C@@H](CCC(N)=O)C(=O)N[C@@H](CCC(N)=O)C(N)=O)[C@@H](C)CC)[C@@H](C)CC)[C@@H](C)O)[C@@H](C)O)C(C)C)C(C)C [melittin]
[1]
  viability of vaginal epithelium cells: dramatically decrease
sperm
  sperm motility: impeded
  sperm viability: impeded

— US20120100186A1, “NANOPARTICULATE-BASED CONTRACEPTIVE/ANTI-HIV COMPOSITION AND METHODS” (Washington University, priority 2010, published 2012)
